This is an account of results in US20110165173A1, “THERAPEUTIC AGENT AND DETECTION REAGENT FOR ARTERIOSCLEROTIC DISEASE WHICH TARGETS FOR SALUSIN” (PROTEINEXPRESS CO., LTD., priority 2007, published 2011).

This experiment has as its system ACAT-1 protein expression. The experiment can be described thus: ACAT-1 protein expression in human monocyte-derived macrophages during differentiation (Western blotting). The format is cell-based. The following applies: for ACAT-1 protein expression vs control cells: 0.6 nM. The method, then:
In the Examples below, monocytes were prepared from human peripheral blood and cultured for 7 days so as to have differentiated into macrophages. At such time, salusin-α (0 to 10 nM) and salusin-β (0 to 10 nM) were simultaneously added thereto, and the effects of salusin were examined.
Culture of monocytes obtained from human peripheral blood was performed by a known method. Isolated monocytes were cultured with the addition of RPMI-1640 (15 mL) and then the floating monocytes were subjected to cell counting with a blood cell counting chamber. The cells were seeded on a 6-cm dish so as to result in 4×10^6 cells/2 mL. The monocytes were kept warm at 37° C. in the presence of 5% CO2 for 1 hour such that the cells were allowed to adhere to the dish. The medium was substituted with RPMI-1640 containing 10% human serum, followed by culture for 7 days. The medium was changed every 3 days.
ACAT-1 is an endoplasmic reticulum enzyme that converts intracellular free cholesterol into cholesterol ester. The ACAT-1 gene is important for foaming of macrophages. In order to examine effects of salusin-α and salusin-β on the ACAT-1 expression, the ACAT-1 protein expression was examined by Western blotting.
Monocyte-derived macrophages that had been cultured for 7 days were washed with PBS 3 times, followed by solubilization with the addition of 10% SDS (sodium dodecyl sulfate) (100 μL) to each dish. Each cell extraction solution was scooped up with a cell scraper, followed by pulverization with the use of a 1-mL TERUMO syringe and a 23-G injection needle for fragmentation (shearing). The resultant was centrifuged at 15,000 rpm for 3 minutes (Himac CF15D2 high-speed micro refrigerated centrifuge; Hitach, Ltd.). The supernatant protein concentration was assayed by the bicinchoninic acid (BCA) method (Pierce) and used as a cell extraction solution for Western blotting.
For ACAT-1 protein detection, an anti-human ACAT-1 polyclonal antibody (DM10 donated from Dr. Chang, Dartmouth Medical School) [Chang CCY et al., J Biol Chem. 1995; 270: 29532-29540] prepared by immunizing a rabbit was used as a primary antibody (final concentration: 0.5 μg/mL) for a reaction on a transfer membrane at room temperature for 1 hour. The transfer membrane was washed with PBS-0.1% Tween 20, followed by a reaction with a secondary antibody (anti-rabbit IgG antibody: anti-rabbit IgG donkey antibody conjugated with horseradish peroxidase (HRP) (GE Healthcare Bio-Science)) at room temperature for 1 hour. For a secondary antibody, a stock solution (0.5 μL) was diluted 10,000-fold with PBS-0.1% Tween 20 (5 mL), and the resultant was used. Washing was carried out with PBS-0.1% Tween 20, followed by ACAT-1 protein detection with the use of Lumi-Light Plus (PerkinElmer Life Sciences).
Human peripheral blood monocytes (4×10^6 cells/6-cm dish) were cultured for 7 days in an RPMI-1640 medium (2 mL) containing 10% human serum so as to differentiate into macrophages. In order to examine the salusin dose-dependent effects on the ACAT-1 protein expression, salusin-α or salusin-β was added to the medium at a concentration of 0, 0.2, 0.4, 0.6, 0.8, or 1.0 nM at the beginning of culture. On Day 7 of culture, macrophage cells differentiated from monocytes were washed with PBS and then solubilized in 10% SDS (100 μL), followed by Western blotting with the use of an ACAT-1-specific antibody. […]

As to “salusin-α: peptide (SEQ ID NO: 1) comprising 28 amino acid residues, generated by processing from preprosalusin (SGALPPAPAAPRPALRAQRAGPAGPGAK; listed as Homo sapiens)”, where the note is “0 to 1.0 nM added at beginning of 7-day culture, concentration-dependent”, the “inhibition of ACAT-1 protein expression” value is “approximately 40%”. Also, the “ACAT-1 protein expression vs control cells” value is “not found to significantly differ” (Day 1, 3, or 5 after seeding) and “significantly inhibited” (Day 7).
For the substance “salusin-β: peptide (SEQ ID NO: 3) comprising 20 amino acid residues, generated by processing from preprosalusin (AIFIFIRWLLKLGHHGRAPP; listed as Homo sapiens) [reference compound]”, the “ACAT-1 protein expression level relative to control” value (0.6 nM (peak level), added at beginning of 7-day culture, attenuated above 0.6 nM) was found to be 2.1 times. The “ACAT-1 protein expression vs control cells” value (Day 5 or later) was “significantly increased”.
